Where two headings read alike, the source gives them in different places.
How the values were obtained:
[1] = tested on: Secretion of IL10 by TMD8 ABC-DLBCL cells; test: Human IL10 Mesoscale assay (TMD-8); format: cell-based; settings: read-out: Human IL10 Mesoscale assay (TMD-8)
Experimental: (§1) NFKB signaling regulates the secretion of multiple cytokines, including IL6 and IL10. Secretion of the cytokines IL6 and IL10 by TMD8 or OCI-LY3 ABC-DLBCL cells was measured using a mesoscale assay.
(§2) Cell passage number should not exceed 30. Cells should be kept between 0.5-2.5 million cells per mL during culturing and cells should be supplemented every 2-3 days with fresh 50 µM beta-mercaptoenthanol. No beta-mercaptoethanol was used during the mesoscale assay.
(§3) DMSO control wells were used to determine the maximum signal (High Control (HC)). […] Compounds and cells were incubated for 24 h at 37° C. and 5% CO2 (assay volume is 150 μL). After 24 h of incubation 50 μL of the supernatant was transferred to a MSD plate (V-Plex Proinflammation Panel 1 (human) kit, Mesoscale (MSD)) and incubated for 2 h with vigorous shaking (600 rpm) at room temperature. Following incubation, plates were washed 3× with PBS+0.05% Tween-20 and 25 μL detection antibody solution (IL6 & IL10 antibodies in diluent 3 (MSD)) was added per well followed by 2 h of incubation with vigorous shaking (600 rpm) at room temperature. After 3× washes with PBS+0.05% Tween-20, plates were incubated with 150 μL 2× Read Buffer T and read on SECTOR imager.

[2] = tested on: Secretion of IL6 by TMD8 ABC-DLBCL cells; test: Human IL6 Mesoscale assay (TMD-8); format: cell-based; settings: read-out: Human IL6 Mesoscale assay (TMD-8)
Experimental: as §1, §2, §3

[3] = tested on: Secretion of IL6 by OCI-LY3 ABC-DLBCL cells; test: Human IL6 Mesoscale assay (OCI-LY3); format: cell-based; settings: OCI-LY3 cells, 24 h incubation, supernatant, MSD V-Plex, read-out: Human IL6 Mesoscale assay (OCI-LY3)
How it was run: (§4)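 TMD8 or OCI-LY3 ABC-DLBCL cells incubated with compound 24 h at 37° C without beta-mercaptoethanol. Secreted IL6 and IL10 in supernatant quantified by MSD electrochemiluminescence immunoassay; DMSO wells define maximum signal.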

[4] = tested on: OCI-Ly3 ABC-DLBCL cell line; test: 4-day proliferation assay OCI-Ly3; format: cell-based; settings: Homo sapiens, read-out: Anti-proliferation: OCI-LY-3 IC50
How it was run: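 10,000 OCI-Ly3 cells per well cultured 4 days at 37° C., 5% CO2 without beta-mercaptoethanol, at densities giving linear growth. Viability read by CellTiterGLO luminescence after 10 min at room temperature.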

[5] = tested on: Secretion of IL10 by OCI-LY3 ABC-DLBCL cells; test: Human IL10 Mesoscale assay (OCI-LY3); format: cell-based; settings: OCI-LY3 cells, 24 h incubation, supernatant, MSD V-Plex, read-out: Human IL10 Mesoscale assay (OCI-LY3)
How it was run: as §4

[6] = biological target: T1, full-length MALT1 protein (Strep-MALT1(1-824)-His) (Homo sapiens, UniProt Q9UDY8); test: biochemical;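 note: fluorogenic LRSR-AMC substrate cleavage by MALT1, 50 min compound preincubation then 4 h reaction at RT, 11-point dilution from 30 µM, scaled between enzyme-free and untreated enzyme controls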
T1 sequence (Q9UDY8 1-824): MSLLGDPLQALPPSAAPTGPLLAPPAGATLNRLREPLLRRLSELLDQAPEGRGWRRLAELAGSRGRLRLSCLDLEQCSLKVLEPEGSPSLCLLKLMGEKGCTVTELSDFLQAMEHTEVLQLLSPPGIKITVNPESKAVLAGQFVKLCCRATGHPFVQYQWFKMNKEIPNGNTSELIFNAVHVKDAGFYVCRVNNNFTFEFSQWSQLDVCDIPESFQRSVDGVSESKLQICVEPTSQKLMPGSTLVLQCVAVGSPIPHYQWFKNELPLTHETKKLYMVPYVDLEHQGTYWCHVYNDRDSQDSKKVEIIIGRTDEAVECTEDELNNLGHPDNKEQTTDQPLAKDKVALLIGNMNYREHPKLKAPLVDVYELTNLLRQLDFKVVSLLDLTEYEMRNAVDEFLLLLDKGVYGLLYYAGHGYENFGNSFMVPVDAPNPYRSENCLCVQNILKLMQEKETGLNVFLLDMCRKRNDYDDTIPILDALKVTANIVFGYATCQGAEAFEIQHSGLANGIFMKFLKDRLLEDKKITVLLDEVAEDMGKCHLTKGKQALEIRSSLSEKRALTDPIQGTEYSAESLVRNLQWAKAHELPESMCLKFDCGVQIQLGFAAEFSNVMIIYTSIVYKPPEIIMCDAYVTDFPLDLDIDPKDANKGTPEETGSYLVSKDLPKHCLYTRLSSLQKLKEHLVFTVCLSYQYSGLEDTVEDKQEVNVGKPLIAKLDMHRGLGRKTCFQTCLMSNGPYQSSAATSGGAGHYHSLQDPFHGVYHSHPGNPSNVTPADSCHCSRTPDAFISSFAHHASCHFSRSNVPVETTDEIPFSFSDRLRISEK

[7] = TMD8 cells, 24 h incubation, supernatant, MSD V-Plex
[8] = 96 h, 10,000 OCI-Ly3 cells per well, 4 days, CellTiterGLO

Row | Structure (SMILES) | IC50 [1, 7] | IC50 [2, 7] | IC50 [3] | IC50 [4, 8] | IC50 [5] | IC50 [6] | IC50 ([1]; TMD8, 24 h) | IC50 ([2]; TMD8, 24 h) | IC50 ([4]; OCI-Ly3, 96 h)
1 | Cc1cc(F)ccc1-n1ncc(C(=O)Nc2cnc(-n3nccn3)c(Cl)c2)c1C(F)(F)F [Cpd 1, N-(5-Chloro-6-(2H-1,2,3-triazol-2-yl)pyridin-3-yl)-1-(4-fluoro-2-methylphenyl)-5-(trifluoromethyl)-1H-pyrazole-4-carboxamide] | 85 nM | 79 nM | 83 nM | 1350 nM | 58 nM | 117 nM | – | – | –
2 | Cc1ccccc1-n1ncc(C(=O)Nc2cnc(-n3nccn3)c(Cl)c2)c1C(F)(F)F [Cpd 29, N-(5-chloro-6-(2H-1,2,3-triazol-2-yl)pyridin-3-yl)-1-(o-tolyl)-5-(trifluoromethyl)-1H-pyrazole-4-carboxamide] | 132 nM | 135 nM | – | 1230 nM | – | 151 nM | – | – | –
3 | COc1nccc(-n2ncc(C(=O)Nc3cnc(-n4nccn4)c(C#N)c3)c2C(F)(F)F)c1Cl [Cpd 32, 1-(3-Chloro-2-methoxypyridin-4-yl)-N-(5-cyano-6-(2H-1,2,3-triazol-2-yl)pyridin-3-yl)-5-(trifluoromethyl)-1H-pyrazole-4-carboxamide] | 646 nM | 1120 nM | – | 575 nM | – | 589 nM | – | – | –
4 | N#Cc1cc(NC(=O)c2cnn(-c3ncc(F)cc3Br)c2C(F)(F)F)cnc1-n1nccn1 [Cpd 34, 1-(3-Bromo-5-fluoropyridin-2-yl)-N-(5-cyano-6-(2H-1,2,3-triazol-2-yl)pyridin-3-yl)-5-(trifluoromethyl)-1H-pyrazole-4-carboxamide] | – | – | – | – | – | 145 nM | 631 nM | 407 nM | 457 nM
5 | N#Cc1cc(NC(=O)c2cnn(-c3nccc(Cl)c3Cl)c2C(F)(F)F)cnc1-n1nccn1 [Cpd 36, N-(5-Cyano-6-(2H-1,2,3-triazol-2-yl)pyridin-3-yl)-1-(3,4-dichloropyridin-2-yl)-5-(trifluoromethyl)-1H-pyrazole-4-carboxamide] | – | – | – | – | – | 214 nM | 1150 nM | 1550 nM | 4270 nM
6 | Cc1nccc(-n2ncc(C(=O)Nc3cnc(-n4nccn4)c(C#N)c3)c2C(F)(F)F)c1Cl [Cpd 43, 1-(3-chloro-2-methylpyridin-4-yl)-N-(5-cyano-6-(2H-1,2,3-triazol-2-yl)pyridin-3-yl)-5-(trifluoromethyl)-1H-pyrazole-4-carboxamide] | 2240 nM | 4790 nM | – | 6310 nM | – | 170 nM | – | – | –
7 | N#Cc1cc(NC(=O)c2cnn(-c3ncccc3Cl)c2C(F)(F)F)cnc1-n1nccn1 [Cpd 44, 1-(3-Chloropyridin-2-yl)-N-(5-cyano-6-(2H-1,2,3-triazol-2-yl)pyridin-3-yl)-5-(trifluoromethyl)-1H-pyrazole-4-carboxamide] | 1230 nM | 490 nM | – | 11000 nM | – | 389 nM | – | – | –
8 | N#Cc1cc(NC(=O)c2cnn(-c3ccncc3Cl)c2C(F)(F)F)cnc1-n1nccn1 [Cpd 45, 1-(3-chloropyridin-4-yl)-N-(5-cyano-6-(2H-1,2,3-triazol-2-yl)pyridin-3-yl)-5-(trifluoromethyl)-1H-pyrazole-4-carboxamide] | 339 nM | 162 nM | – | 4790 nM | – | 87 nM | – | – | –
9 | N#Cc1cc(NC(=O)c2cnn(-c3c(Cl)cncc3Cl)c2C(F)(F)F)cnc1-n1nccn1 [Cpd 48, N-(5-cyano-6-(2H-1,2,3-triazol-2-yl)pyridin-3-yl)-1-(3,5-dichloropyridin-4-yl)-5-(trifluoromethyl)-1H-pyrazole-4-carboxamide] | – | – | – | – | – | 204 nM | 513 nM | 1620 nM | 3630 nM
10 | N#Cc1cc(NC(=O)c2cnn(-c3cccc4c3OCCO4)c2C(F)(F)F)cnc1-n1nccn1 [Cpd 49, N-(5-cyano-6-(2H-1,2,3-triazol-2-yl)pyridin-3-yl)-1-(2,3-dihydrobenzo[b][1,4]dioxin-5-yl)-5-(trifluoromethyl)-1H-pyrazole-4-carboxamide] | 151 nM | 145 nM | – | 437 nM | – | 148 nM | – | – | –
11 | N#Cc1cc(NC(=O)c2cnn(-c3cccc4c3OCO4)c2C(F)(F)F)cnc1-n1nccn1 [Cpd 59, 1-(benzo[d][1,3]dioxol-4-yl)-N-(5-cyano-6-(2H-1,2,3-triazol-2-yl)pyridin-3-yl)-5-(trifluoromethyl)-1H-pyrazole-4-carboxamide] | – | – | – | – | – | 41 nM | 48 nM | 35 nM | 468 nM
12 | Cc1cc(-n2ncc(C(=O)Nc3cnc(-n4nccn4)c(Cl)c3)c2C(F)(F)F)c(Cl)cn1 [Cpd 68, 1-(5-chloro-2-methylpyridin-4-yl)-N-(5-chloro-6-(2H-1,2,3-triazol-2-yl)pyridin-3-yl)-5-(trifluoromethyl)-1H-pyrazole-4-carboxamide] | – | – | – | – | – | 427 nM | 7080 nM | 5500 nM | 7080 nM
13 | Cc1nccc(-n2ncc(C(=O)Nc3cnc(-n4nccn4)c(Cl)c3)c2C(F)(F)F)c1Cl [Cpd 69, 1-(3-chloro-2-methylpyridin-4-yl)-N-(5-chloro-6-(2H-1,2,3-triazol-2-yl)pyridin-3-yl)-5-(trifluoromethyl)-1H-pyrazole-4-carboxamide] | 3240 nM | 2290 nM | – | 2090 nM | – | 257 nM | – | – | –
14 | Cc1cc(-n2ncc(C(=O)Nc3cnc(-n4nccn4)c(C#N)c3)c2C(F)(F)F)c(Cl)cn1 [Cpd 70, 1-(5-chloro-2-methylpyridin-4-yl)-N-(5-cyano-6-(2H-1,2,3-triazol-2-yl)pyridin-3-yl)-5-(trifluoromethyl)-1H-pyrazole-4-carboxamide] | – | – | – | – | – | 204 nM | 3550 nM | 4470 nM | 6610 nM
15 | N#Cc1cc(NC(=O)c2cnn(-c3ncc(F)cc3Cl)c2C(F)(F)F)cnc1-n1nccn1 [Cpd 106, 1-(3-chloro-5-fluoropyridin-2-yl)-N-(5-cyano-6-(2H-1,2,3-triazol-2-yl)pyridin-3-yl)-5-(trifluoromethyl)-1H-pyrazole-4-carboxamide] | 2040 nM | 2290 nM | – | 2880 nM | – | 251 nM | – | – | –
16 | CN1CCOc2c1cccc2-n1ncc(C(=O)Nc2cnc(-n3nccn3)c(C#N)c2)c1C(F)(F)F [Cpd 132, N-(5-cyano-6-(2H-1,2,3-triazol-2-yl)pyridin-3-yl)-1-(4-methyl-3,4-dihydro-2H-benzo[b][1,4]oxazin-8-yl)-5-(trifluoromethyl)-1H-pyrazole-4-carboxamide] | 1350 nM | 550 nM | – | 1100 nM | – | 191 nM | – | – | –

— patent publication US11040031B2, “Pyrazole derivatives as MALT1 inhibitors” (Janssen Pharmaceutica NV, priority 2018, dated 2021)
